Reference: paper PMC8214221, “Sequence determinants in the cathelicidin LL-37 that promote inflammation via presentation of RNA to scavenger receptors” (The Journal of Biological Chemistry, 2021)
Residues, ends and D or L forms follow the SMILES beside them.

Test system: C57BL/6 mouse ear skin inflammation
Experiment: Intradermal ear injection with U1 dsRNA in mice
Assay type: in vivo
Details: 24 h; for Gene expression of IL-6 and CXCL10 in mouse ears: C57BL/6 female mice, intradermal ear coinjection of 25 μg U1 dsRNA and 16 μM peptide, qRT-PCR, mutants compared with U1 dsRNA + LL-34 parent; for Mast cells in mouse ear skin (flow cytometry) / Macrophage and neutrophil recruitment in mouse ear skin (flow cytometry): C57BL/6 mice, intradermal coinjection of 25 μg U1 dsRNA and 16 μM peptide, n = 3; for Mast cells in mouse ear skin (flow cytometry): frequency of gated live cells; for Macrophage and neutrophil recruitment in mouse ear skin (flow cytometry): mutants compared with LL-34 parent + U1 dsRNA
Experimental: C57BL/6 female mice at 8 weeks old were injected in the ears intradermally with a single injection of 25 μg of U1 dsRNA and/or LL-34 parent, Pep I24A, or Pep L31A. We investigated gene expression of IL-6, CXCL10, and TSLP in these mice (Fig. 2, B–D). […] This was in agreement with the in vitro results (Fig. 1). We also looked at the infiltration of immune cells to the mouse ear skin with flow cytometry.
Figure 2 LL-34-I24A and LL-34-L31A peptides loose vetting activity in vivo. C57BL/6 mice ears were injected intradermally with either 25 μg of U1 dsRNA, 16 μM LL-34-parent, LL-34-I24A, and LL-34-L31A as shown in the figure for 24 h (n = 6). A, H&E staining of cross sections of mice injected with U1 dsRNA or LL-34 peptides is shown. The bar represents […]. B–D, gene expression changes for IL-6, CXCL10, and TSLP were assessed with qRT-PCR. GAPDH was used as a reference gene. E–G, flow cytometry analysis was performed to assess the infiltration of immune cells in mouse ears injected with U1 dsRNA alone or a combination of U1 dsRNA and LL-34 peptides. Data are represented as the frequency of gated live cells for mast cells, macrophages, and neutrophils. (n = 3) (∗p < 0.05; ∗∗p < 0.01; ∗∗∗p < 0.001; ∗∗∗∗p < 0.0001). One way-ANOVA was used. LL-34, 34-amino acid peptide; ns, not significant.
All mouse procedures were approved by the University of California, San Diego (UCSD) Institutional Animal Care and Use Program (protocol number: S09074). Eight-week-old female C57BL/6 wildtype mice were used for experiments. C57BL/6 mice ears were injected intradermally with U1 dsRNA and/or LL-34 peptides as described previously ([7]). Single injections were performed. A total of 30 μl was injected in the middle part of the ear. Twenty-four hours after the injection, mice were euthanized with CO2 asphyxiation and ears excised and immediately collected in cold RPMI complete medium on ice and processed for immunohistochemistry, gene expression analysis, and flow cytometry within 1 h.
Mouse ears were collected following euthanasia in cold complete RPMI media on ice and cut into small pieces within 60 min, then digested with 2.5 mg/ml collagenase D, and 30 ng/ml DNase1 for 2 h at 37 °C and then filtered through a 30 μm filter to generate single-cell suspension for fluorescence-activated cell sorting analyses. Cells were then stained with Fixable Viability Dye eFluor 506 (eBioscience; 65-0866-14) blocked with antimouse CD16/32 (eBioscience; 14016185, 1:50 dilution), followed by staining with antibody cocktails for immune cells. The antibody cocktail for immune cells included PECy7-CD11b (BioLegend; 101216, 1:200 dilution), FITC-Ly6G (eBioscience; 11593182, 1:150 dilution), PE-F4/80 (eBioscience; 12480182, 1:200 dilution), APC-CD11C (BioLegend; 117310, 1:100 dilution), AF700-MHCII (eBioscience; 56532182, 1:100 dilution), and c-Kit (Biolegend; 10581, 1:100 dilution). Fluorescence-activated cell sorting analyses for surface expression of immune cell markers were performed by the Biorad ZE5 machine and analyzed by FlowJo V10 software (BD Biosciences). Dead cells were gated out from the analyses.

Row | Structure (SMILES) | Gene expression of IL-6 and CXCL10 in mouse ears | Mast cells in mouse ear skin (flow cytometry) | Macrophage and neutrophil recruitment in mouse ear skin (flow cytometry)
1 | CC[C@H](C)[C@H](NC(=O)[C@H](CCCCN)NC(=O)[C@H](CCC(=O)O)NC(=O)[C@H](CCCCN)NC(=O)[C@H](CO)NC(=O)[C@H](CCCCN)NC(=O)[C@H](CCCNC(=N)N)NC(=O)[C@H](Cc1ccccc1)NC(=O)[C@H](Cc1ccccc1)NC(=O)[C@H](CC(=O)O)NC(=O)CNC(=O)[C@H](CC(C)C)NC(=O)[C@@H](N)CC(C)C)C(=O)NCC(=O)N[C@@H](CCCCN)C(=O)N[C@@H](CCC(=O)O)C(=O)N[C@@H](Cc1ccccc1)C(=O)N[C@@H](CCCCN)C(=O)N[C@@H](CCCNC(=N)N)C(=O)N[C@H](C(=O)N[C@H](C(=O)N[C@@H](CCC(N)=O)C(=O)N[C@@H](CCCNC(=N)N)C(=O)N[C@H](C(=O)N[C@@H](CCCCN)C(=O)N[C@@H](CC(=O)O)C(=O)N[C@@H](Cc1ccccc1)C(=O)N[C@@H](CC(C)C)C(=O)N[C@@H](CCCNC(=N)N)C(=O)N[C@@H](CC(N)=O)C(=O)N[C@@H](C)C(=O)N[C@H](C(=O)N1CCC[C@H]1C(=O)N[C@@H](CCCNC(=N)N)C(=O)O)C(C)C)[C@@H](C)CC)C(C)C)[C@@H](C)CC [LL-34—L31A] (H-LLGDFFRKSKEKIGKEFKRIVQRIKDFLRNAVPR-OH) | significantly reduced | significant decrease in mast cell number | significant reduction in macrophage and neutrophil recruitment
2 | CC[C@H](C)[C@H](NC(=O)[C@H](CCCCN)NC(=O)[C@H](CCC(=O)O)NC(=O)[C@H](CCCCN)NC(=O)[C@H](CO)NC(=O)[C@H](CCCCN)NC(=O)[C@H](CCCNC(=N)N)NC(=O)[C@H](Cc1ccccc1)NC(=O)[C@H](Cc1ccccc1)NC(=O)[C@H](CC(=O)O)NC(=O)CNC(=O)[C@H](CC(C)C)NC(=O)[C@@H](N)CC(C)C)C(=O)NCC(=O)N[C@@H](CCCCN)C(=O)N[C@@H](CCC(=O)O)C(=O)N[C@@H](Cc1ccccc1)C(=O)N[C@@H](CCCCN)C(=O)N[C@@H](CCCNC(=N)N)C(=O)N[C@H](C(=O)N[C@H](C(=O)N[C@@H](CCC(N)=O)C(=O)N[C@@H](CCCNC(=N)N)C(=O)N[C@@H](C)C(=O)N[C@@H](CCCCN)C(=O)N[C@@H](CC(=O)O)C(=O)N[C@@H](Cc1ccccc1)C(=O)N[C@@H](CC(C)C)C(=O)N[C@@H](CCCNC(=N)N)C(=O)N[C@@H](CC(N)=O)C(=O)N[C@@H](CC(C)C)C(=O)N[C@H](C(=O)N1CCC[C@H]1C(=O)N[C@@H](CCCNC(=N)N)C(=O)O)C(C)C)C(C)C)[C@@H](C)CC [LL-34—I24A] (H-LLGDFFRKSKEKIGKEFKRIVQRAKDFLRNLVPR-OH) | significantly reduced | similarly increased mast cells | significant reduction in macrophage and neutrophil recruitment
